Laboratory results taken from article PMC5722316, “Synthesis of novel purpurealidin analogs and evaluation of their effect on the cancer-relevant potassium channel KV10.1” (PLoS ONE, 2017).

How the values were obtained:
Xenopus oocytes = experiment: 48-h incubation of Xenopus oocytes, oocyte quality; type: cell-based, Xenopus laevis; details: 10 μM
From the text: A dose-dependent antiproliferative and cytotoxic effect was not only observed on the KV10.1-expressing cells but also on the control cell lines.

hKV10.1a = target: T1, hKV10.1a (Homo sapiens, UniProt O95259); experiment: Two-electrode voltage-clamp recordings of KV10.1 currents in Xenopus laevis oocytes; type: cell-based
T1 construct: expressed in transfected cells; host or cells: Xenopus laevis oocytes injected with cRNA transcribed from the hKV10.1a-pSGEM plasmid
T1 sequence (O95259 1-962 isoform O95259-2): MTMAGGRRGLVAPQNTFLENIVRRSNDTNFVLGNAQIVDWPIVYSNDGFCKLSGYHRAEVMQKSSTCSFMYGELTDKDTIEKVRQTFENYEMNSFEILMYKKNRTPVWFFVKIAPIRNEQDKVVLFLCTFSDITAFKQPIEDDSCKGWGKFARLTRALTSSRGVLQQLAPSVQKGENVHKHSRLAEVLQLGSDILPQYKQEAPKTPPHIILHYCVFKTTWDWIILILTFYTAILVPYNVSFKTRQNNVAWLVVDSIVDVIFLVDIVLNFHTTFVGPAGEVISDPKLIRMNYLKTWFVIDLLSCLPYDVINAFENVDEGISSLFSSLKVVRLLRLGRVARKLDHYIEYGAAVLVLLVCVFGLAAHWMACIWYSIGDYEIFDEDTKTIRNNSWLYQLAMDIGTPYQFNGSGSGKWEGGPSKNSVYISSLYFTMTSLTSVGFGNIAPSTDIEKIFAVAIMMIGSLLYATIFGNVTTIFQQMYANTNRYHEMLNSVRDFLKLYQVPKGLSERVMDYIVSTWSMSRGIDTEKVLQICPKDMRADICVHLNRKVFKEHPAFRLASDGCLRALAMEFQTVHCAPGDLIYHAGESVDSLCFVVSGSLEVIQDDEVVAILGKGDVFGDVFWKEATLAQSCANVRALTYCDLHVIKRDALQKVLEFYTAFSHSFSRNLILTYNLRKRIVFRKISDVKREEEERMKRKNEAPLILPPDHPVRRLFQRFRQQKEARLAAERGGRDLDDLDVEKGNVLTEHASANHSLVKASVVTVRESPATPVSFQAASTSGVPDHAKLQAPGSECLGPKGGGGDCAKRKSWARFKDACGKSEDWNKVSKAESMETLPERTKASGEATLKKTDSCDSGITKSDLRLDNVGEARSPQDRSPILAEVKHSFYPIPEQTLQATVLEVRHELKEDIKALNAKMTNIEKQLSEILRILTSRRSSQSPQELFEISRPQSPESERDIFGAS

MDA-MB-435S = experiment: Proliferation assay (IncuCyte live-cell imaging, cell confluency); type: cell-based; details: Homo sapiens, indicative, from AUC vs concentration (2-100 μM), read-out: Antiproliferative effect (IC50)
Method: (§1) Cell lines SH-SY5Y (ACC 209), DU145 (ACC 261), LNCaP (ACC 256) and NIH-3T3 (ACC 59) were purchased from DSMZ (Germany). MDA-MB-435S (HTB 129) and hTERT RPE-1 (CRL 4000) were obtained from ATCC (USA). Cell lines were cultured in their recommended media Supplemented with 10% or 15% FCS (PAA laboratories, Germany) at 37°C in humidified 5% CO2 atmosphere. All media were purchased from ThermoFisher Scientific (Waltham, Massachusetts, United States).
(§2) Cell proliferation, cytotoxicity and apoptosis were assessed in a 96-well microtiter plate by live-cell imaging using an IncuCyte Zoom System (Essen BioScience, UK). Cell proliferation was monitored in terms of cell confluency (%). Cell cytotoxicity was assessed by the CellTox Green Dye assay (Promega, Madison, Wisconsin, USA). The Incucyte Caspase-3/7 apoptosis assay (Essen BioScience, UK) was used to evaluate the effect of compound 5 on the apoptotic pathway. As negative controls media supplemented with 0.05% of DMSO were used.
(§3) Live-cell imaging data were collected from the IncuCyte Zoom software and analyzed using GraphPad Prism 5 software. Proliferation was measured as Phase Object Confluence (%), cytotoxicity and apoptosis were measured as Green Object Count (1/mm^2). All data are represented as mean S.E.M of n = 6 different wells.
(§4) The following concentrations of compound 5 were added to the different cell lines, 100 μM, 50 μM, 20 μM, 10 μM, 5 μM and 2 μM to assess its effect on cell proliferation (S1 Fig) and cytotoxicity (S2 Fig). Indicative IC50-values for the proliferation assays were obtained by plotting the areas under the curve (AUC × 10^3) against the tested compound 5 concentrations and by fitting the curve with a logistic dose-response equation. The EC50-values for the cytotoxicity assays were calculated correspondingly (S3 Fig). Although more data points would be necessary to calculate precise IC50 and EC50-values, it is clear that compound 5 inhibits the proliferation and induces cytotoxicity in all the tested cell lines in the low to middle micromolar range.

NIH-3T3 = experiment: as above; type: cell-based; details: Mus musculus, NIH3T3, indicative, from AUC vs concentration (2-100 μM), read-out: Antiproliferative effect (IC50)
Method: as §1, §2, §3, §4

DU145 = experiment: as above; type: cell-based; details: Homo sapiens, DU-145, indicative, from AUC vs concentration (2-100 μM), read-out: Antiproliferative effect (IC50)
Method: as §1, §2, §3, §4

LNCAP = experiment: as above; type: cell-based; details: Homo sapiens, indicative, from AUC vs concentration (2-100 μM), read-out: Antiproliferative effect (IC50)
Method: as §1, §2, §3, §4

SH-SY5Y = experiment: as above; type: cell-based; details: Homo sapiens, indicative, from AUC vs concentration (2-100 μM), read-out: Antiproliferative effect (IC50)
Method: as §1, §2, §3, §4

hTERT RPE-1 = experiment: as above; type: cell-based; details: Homo sapiens, hTERT-RPE1, indicative, from AUC vs concentration (2-100 μM), read-out: Antiproliferative effect (IC50)
Method: as §1, §2, §3, §4

melting point: 79 to 81 °C
time constant (τ) of current decrease on open channels (hKV10.1a; 10 μM added during 20-s continuous step to 30 mV, no P/4 leak subtraction): ~ 1.4 s
shift of activation curve (ΔV1/2) to more negative potentials (hKV10.1a; 10 μM, HK solution ([K+]e = 96 mM), Boltzmann fit): 14.8 ± 2.1 mV
half-maximal voltage of activation (V1/2) in presence of compound (hKV10.1a; 10 μM, HK solution ([K+]e = 96 mM), control V1/2 = 39.3 ± 1.7 mV): 24.5 ± 1.3 mV
slope factor k of activation curve in presence of compound (hKV10.1a; 10 μM, HK solution, control k = 15.7 ± 0.9): 14.5± 1.0
IC50 (MDA-MB-435S): 28.1 µM
IC50 (DU145): 28.9 µM
IC50 (LNCAP): 26.4 µM
IC50 (SH-SY5Y): 12.2 µM
SMILES: COc1ccc(C(=O)NCCc2cc(Br)c(OCCCN(C)C)c(Br)c2)cc1Cl [Compound 5, 3-Chloro-N-[3,5-dibromo-4-[3-(dimethylamino)propoxy]phenethyl]-4-methoxybenzamide]
oocyte quality (visual and electrophysiological observation) (Xenopus oocytes): did not result in noticeable deterioration of the oocyte quality
IC50 (NIH-3T3): 7.13 µM
IC50 (hTERT RPE-1): 12.5 µM
